Measured values taken from patent publication US20080241919A1, “Defined media for pluripotent stem cell culture” (The Burnham Institute of Medical Research, priority 2003, published 2008).

Tests used:
[1] = system: human embryonic stem cells (hESCs); assay: Medium component requirement assay, hESCs on laminin/collagen-coated plates for seven days; format: cell-based
Description: (a) Media containing bFGF, insulin, and ascorbic acid sustain the healthy undifferentiated growth of hESCs on laminin/collagen-coated plates. Insulin (20 μg/ml), transferrin (8 μg/ml), albumin (for example, the commercial product known as AlbuMAXI) (10 mg/ml), and ascorbic acid (50 μg/ml) were added to a base medium that consisted of 100% DMEM/F-12 with 20 ng/ml bFGF, 2 mM L-alanyl-L-glutamine, 1×MEM essential amino acids solution, 1×MEM non-essential amino acids solution, and 100 μM β-mercaptoethanol. The degree of differentiation was judged by morphology of the colonies and Oct-4 expression. […] (red). […] However, if ascorbic acid was omitted from the media [D, H, L] […] White arrows in all panels delineate the edge of an hESC colony. The area delineated by the white square in [A], [E], and [I] indicates the approximate area that is visualized at higher magnification in [B, C], [F, G], and [J, K], respectively. [C], [G], and [K] is the image in [B], [F], and [J], respectively, merged with DAPI staining of their nuclei (blue).
(b) When either bFGF or insulin was omitted from the media, hESC colonies appeared to differentiate completely under the feeder- and serum-free conditions. […] The distinct growth effects of insulin and bFGF were further accentuated in media lacking ascorbic acid [C, F] (“NO Ascorbic Acid”). In the absence of ascorbic acid and in media that contained only insulin as the growth factor [C] (phase) (“NO Ascorbic Acid”), slower growth of the differentiated hESCs was observed (compare [A, B] to [C]). In ascorbic-acid-lacking media that contained bFGF as the only growth factor [F] […] White arrows in all panels delineate the edge of hESC colonies.
Having determined that substantial numbers of undifferentiated hESCs could be maintained over long periods in feeder-free environments using the bFGF-supplemented media described above, the necessity of other components in the medium to maintain hESCs in an undifferentiated state was next examined. “Knockout Serum Replacement” contains insulin, transferrin, ascorbic acid, amino acids, and AlbuMAX (a chromatographically-purified lipid-rich bovine serum albumin [BSA] with low IgG content, but nevertheless a xeno-derived product). Accordingly, whether insulin, transferrin, BSA, and ascorbic acid were essential components was assessed, in combination with bFGF, for maintaining hESCs in an undifferentiated state. The serum replacement components insulin (20 μg/ml), transferrin (8 μg/ml), albumin (AlbuMAX) (10 mg/ml), and ascorbic acid (50 μg/ml) were added to a base medium that consisted of DMEM/F-12 or KO-DMEM with bFGF (20 ng/ml), L-alanyl-L-glutamine or L-glutamine (2 mM), MEM essential amino acids solution (1×), MEM nonessential amino acids solution (1×), and β-mercaptoethanol (100 μM). To assay for the differentiation-forestalling activity of each of these components, undifferentiated hESCs were seeded on laminin/collagen-coated plates and cultivated for seven days in media containing one or more of the individual components. The degree of differentiation of the colonies was judged by defining morphology and Oct-4 expression.
When either bFGF or insulin was omitted from the media, more than 90% of the colonies appeared to differentiate completely within the first passage, as indicated by their differentiated morphology (FIG. 2b, A,B,D,E), their complete loss of Oct-4 expression, and their expression of the cell surface marker SSEA-1 (FIG. 2c, B,C). […] The different effects of insulin and bFGF were accentuated further in media lacking ascorbic acid. In the absence of ascorbic acid and in media containing only insulin, the growth of differentiated hESCs was simply slower (FIG. 2b, C). […] Although albumin and transferrin are not crucial components for sustaining the undifferentiated growth of hESCs, they might abet survival or maintenance of a normal colony shape.

[2] = system: human embryonic stem cells (hESCs); assay: Other growth factors in place of bFGF for undifferentiated growth of hESCs; format: cell-based; details: feeder- and serum-free conditions
Description: All the growth factors were dissolved in a PBS buffer that contained 0.5% BSA, 1 mM DTT (Dithiothreitol) and 10% glyceral as a 10 μg/ml (500×) stock solution and stored in aliquots at −80° C. These factors were added individually to the hESC cultures at a concentration of 20 ng/ml, in the absence of bFGF or in the presence of a low concentration of bFGF (4 ng/ml). Seven days after seeding undifferentiated hESCs on laminin/collagen-coated plates, the cultures were examined.

[3] = system: acetylated histone H3 and H4, Myc, Tip60 HAT, p300 HAT; assay: Chromatin state immunofluorescence (acetylated H3/H4, Myc, Tip60, p300) in hESCs; format: cell-based, human; details: named factor omitted from the media
Source text: (c) Presence of both bFGF and insulin is essential for maintenance of an acetylated transcriptionally active chromatin state in undifferentiated hESCs. When either bFGF or insulin is omitted from the media, the differentiated hESC colonies express the differentiation-associated cell surface marker SSEA-1 [B, C] […] (green), Myc [E, F] (red), and histone acetyltransferase (HAT) Tip60 [I, K] (green) and p300 [J, K] […] All cells are indicated by DAPI staining of their nuclei (blue).
To discover the minimal essential conditions needed to support the long-term growth of undifferentiated hESCs, morphological analysis was used to assess the developmental stage of hESCs at different times. For these analyses hESCs were grown in a 6- or 12-well plate to maturation (day 6 or 7 after seeding) before being fixed and visualized under a phase contrast microscope. Cellular immunofluorescence was also employed to assess the state of differentiation of hESCs. […] The state of differentiation of hESC was further assessed by generating (via lentiviral-mediated transduction) hESCs carrying a reporter gene (enhanced green fluorescence protein (EGFP)) under control of the Oct-4 promoter. Using these transfected hESCs (carrying Oct-4 driven EGFP), the undifferentiated state of hESCs can be visualized by green fluorescence (indicating Oct-4 expression). […]

[4] = system: human embryonic stem cells (hESCs); assay: Growth of hESCs on purified matrix protein-coated plates; format: cell-based; details: hESC media containing 20 ng/ml bFGF
Source text: (e) Characterization of hESCs maintained on matrix protein-coated plates in the defined hESC media - Determining the Minimal Essential Matrix. hESCs maintained on a laminin-coated plate have a classic undifferentiated morphology [A] (phase image) and express Oct-4 [B, C] (red). [C] is the image in [B] merged with DAPI staining of their nuclei (blue). White arrows delineate the edge of an hESC colony. The area delineated by the white square in [A] indicates the approximate area that is visualized at higher magnification in [B, C]. […] Red arrows in [D-F] indicate that the differentiated colony consisted of dense centers containing cyst-like structures and necrotic cells. Laminin, therefore, appeared to be the minimal sufficient matrix protein.
Having established that bFGF, insulin, and ascorbic acid were important minimal components of a feeder-free culture system, the growth of hESCs on purified matrix proteins, including human laminin-, fibronectin-, or collagen IV-coated plates in hESC media containing 20 ng/ml bFGF, was further examined.

O=C1O[C@H]([C@@H](O)CO)C(O)=C1O [ascorbic acid, reference compound]
cyst-like structures and necrotic cells within dense cores of differentiated hESC colonies ([1]; absence of ascorbic acid, media containing only bFGF): became more severe | growth of differentiated hESCs ([1]; absence of ascorbic acid, media containing only insulin): simply slower | appearance of hESC colonies ([1]; ascorbic acid omitted from the media): very dense at their core and necrotic

EGF: epidermal growth factor (NSDSECPLSHDGYCLHDGVCMYIEALDKYACNCVVGYIGERCQYRDLKWWELR; Epidermal growth factor; UniProt P01133 971-1023, looked up)
ability to replace bFGF in supporting undifferentiated growth of hESCs [2]: can not replace bFGF

IGF-I: insulin-like growth factor-I
ability to replace bFGF in supporting undifferentiated growth of hESCs [2]: can not replace bFGF

IGF-II: insulin-like growth factor-II
ability to replace bFGF in supporting undifferentiated growth of hESCs [2]: can not replace bFGF

PDGF: platelet-derived growth factor-AB
ability to replace bFGF in supporting undifferentiated growth of hESCs [2]: can not replace bFGF

VEGF
ability to replace bFGF in supporting undifferentiated growth of hESCs [2]: can not replace bFGF

aFGF: acidic fibroblast growth factor
ability to replace bFGF in supporting undifferentiated growth of hESCs [2]: can not replace bFGF

albumin: chromatographically-purified lipid-rich bovine serum albumin with low IgG content
shape of hESC colonies ([1]; absence of albumin): more flat and spread out

insulin: human recombinant insulin from Sigma, medium component
immunoreactivity to acetylated H3 and H4, Myc, Tip60 HAT, nuclear focal localization of p300 HAT [3]: undetectable or weak immunoreactivity | cell morphology in differentiated colonies ([1]; media that contained only the named growth factor): Large round cells

laminin
hESC colonies remaining undifferentiated (morphology, Oct-4) [4]: more than 80%

transferrin: serum replacement component added at 8 μg/ml
number of hESC colonies ([1]; absence of transferrin): fewer total hESC colonies
